IC50 data for 15 compounds are collected here from ChEMBL document CHEMBL4028801, “A multifactorial approach to hepatobiliary transporter assessment enables improved therapeutic compound development” (Toxicol Sci, 2013).

The target of test [1] is ATP-binding cassette sub-family C member 2 (Homo sapiens, UniProt Q92887). As to the kind of experiment: Inhibition of human MRP2 overexpressed in Sf9 cell membrane vesicles assessed as uptake of [3H]-estradiol-17beta-D-glucuronide in presence of ATP and GSH measured after 20 mins by membrane vesicle transport assay.
The target in test [2] is T1, ATP-binding cassette sub-family C member 4 (Homo sapiens, UniProt O15439).
T1 sequence (O15439 whole entry): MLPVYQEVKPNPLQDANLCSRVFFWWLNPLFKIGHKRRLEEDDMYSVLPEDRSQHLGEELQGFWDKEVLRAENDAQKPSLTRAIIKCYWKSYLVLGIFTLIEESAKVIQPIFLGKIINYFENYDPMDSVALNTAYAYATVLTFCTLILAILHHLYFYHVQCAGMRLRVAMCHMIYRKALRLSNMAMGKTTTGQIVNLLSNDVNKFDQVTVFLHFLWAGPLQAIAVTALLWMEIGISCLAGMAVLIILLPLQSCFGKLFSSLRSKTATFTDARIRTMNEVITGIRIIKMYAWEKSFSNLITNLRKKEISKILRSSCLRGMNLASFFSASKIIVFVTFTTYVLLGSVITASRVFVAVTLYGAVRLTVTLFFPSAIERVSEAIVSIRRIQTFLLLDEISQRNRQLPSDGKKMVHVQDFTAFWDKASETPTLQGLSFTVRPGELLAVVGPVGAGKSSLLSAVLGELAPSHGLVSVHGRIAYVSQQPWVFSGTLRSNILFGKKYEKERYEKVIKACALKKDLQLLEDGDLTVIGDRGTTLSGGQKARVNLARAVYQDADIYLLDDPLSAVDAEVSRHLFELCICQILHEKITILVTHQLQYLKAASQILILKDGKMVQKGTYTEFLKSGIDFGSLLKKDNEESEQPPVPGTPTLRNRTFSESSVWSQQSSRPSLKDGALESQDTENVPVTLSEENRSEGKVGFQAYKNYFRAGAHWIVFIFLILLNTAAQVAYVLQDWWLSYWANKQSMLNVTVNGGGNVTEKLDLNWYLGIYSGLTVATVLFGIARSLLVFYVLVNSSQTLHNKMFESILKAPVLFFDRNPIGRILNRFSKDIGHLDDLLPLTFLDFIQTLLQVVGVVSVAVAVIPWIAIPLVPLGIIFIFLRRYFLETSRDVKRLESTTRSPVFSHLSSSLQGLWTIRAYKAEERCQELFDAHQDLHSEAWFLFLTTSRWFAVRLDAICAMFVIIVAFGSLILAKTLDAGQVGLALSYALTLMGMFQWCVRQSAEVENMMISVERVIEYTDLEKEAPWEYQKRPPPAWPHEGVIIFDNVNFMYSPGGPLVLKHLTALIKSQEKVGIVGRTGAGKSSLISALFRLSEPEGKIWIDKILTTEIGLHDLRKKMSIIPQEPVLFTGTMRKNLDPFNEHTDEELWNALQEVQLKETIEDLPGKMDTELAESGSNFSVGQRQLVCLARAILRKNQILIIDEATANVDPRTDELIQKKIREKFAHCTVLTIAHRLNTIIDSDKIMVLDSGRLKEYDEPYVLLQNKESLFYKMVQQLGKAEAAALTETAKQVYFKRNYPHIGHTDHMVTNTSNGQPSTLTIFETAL
As to the kind of experiment: Inhibition of human MRP4 overexpressed in Sf9 cell membrane vesicles assessed as uptake of [3H]-estradiol-17beta-D-glucuronide in presence of ATP and GSH measured after 20 mins by membrane vesicle transport assay. The test is classed as ADME, cell-based.

The target in test [3] is ATP-binding cassette sub-family C member 3 (Homo sapiens, UniProt O15438). As to the kind of experiment: Inhibition of human MRP3 overexpressed in Sf9 insect cell membrane vesicles assessed as uptake of [3H]-estradiol-17beta-D-glucuronide in presence of ATP and GSH measured after 10 mins by membrane vesicle transport assay. Type of test: ADME, cell-based.
The next test deals with Bile salt export pump (Homo sapiens, UniProt O95342). As to the kind of experiment: Inhibition of human BSEP overexpressed in Sf9 cell membrane vesicles assessed as uptake of [3H]-taurocholate in presence of ATP measured after 15 to 20 mins by membrane vesicle transport assay. Type of test: ADME, cell-based.

Structures are written as SMILES. Counter-ions that a name gives are not always drawn. Bounds are passed on as bounds.

ATP-binding cassette sub-family C member 2, sequence (Q92887 whole entry): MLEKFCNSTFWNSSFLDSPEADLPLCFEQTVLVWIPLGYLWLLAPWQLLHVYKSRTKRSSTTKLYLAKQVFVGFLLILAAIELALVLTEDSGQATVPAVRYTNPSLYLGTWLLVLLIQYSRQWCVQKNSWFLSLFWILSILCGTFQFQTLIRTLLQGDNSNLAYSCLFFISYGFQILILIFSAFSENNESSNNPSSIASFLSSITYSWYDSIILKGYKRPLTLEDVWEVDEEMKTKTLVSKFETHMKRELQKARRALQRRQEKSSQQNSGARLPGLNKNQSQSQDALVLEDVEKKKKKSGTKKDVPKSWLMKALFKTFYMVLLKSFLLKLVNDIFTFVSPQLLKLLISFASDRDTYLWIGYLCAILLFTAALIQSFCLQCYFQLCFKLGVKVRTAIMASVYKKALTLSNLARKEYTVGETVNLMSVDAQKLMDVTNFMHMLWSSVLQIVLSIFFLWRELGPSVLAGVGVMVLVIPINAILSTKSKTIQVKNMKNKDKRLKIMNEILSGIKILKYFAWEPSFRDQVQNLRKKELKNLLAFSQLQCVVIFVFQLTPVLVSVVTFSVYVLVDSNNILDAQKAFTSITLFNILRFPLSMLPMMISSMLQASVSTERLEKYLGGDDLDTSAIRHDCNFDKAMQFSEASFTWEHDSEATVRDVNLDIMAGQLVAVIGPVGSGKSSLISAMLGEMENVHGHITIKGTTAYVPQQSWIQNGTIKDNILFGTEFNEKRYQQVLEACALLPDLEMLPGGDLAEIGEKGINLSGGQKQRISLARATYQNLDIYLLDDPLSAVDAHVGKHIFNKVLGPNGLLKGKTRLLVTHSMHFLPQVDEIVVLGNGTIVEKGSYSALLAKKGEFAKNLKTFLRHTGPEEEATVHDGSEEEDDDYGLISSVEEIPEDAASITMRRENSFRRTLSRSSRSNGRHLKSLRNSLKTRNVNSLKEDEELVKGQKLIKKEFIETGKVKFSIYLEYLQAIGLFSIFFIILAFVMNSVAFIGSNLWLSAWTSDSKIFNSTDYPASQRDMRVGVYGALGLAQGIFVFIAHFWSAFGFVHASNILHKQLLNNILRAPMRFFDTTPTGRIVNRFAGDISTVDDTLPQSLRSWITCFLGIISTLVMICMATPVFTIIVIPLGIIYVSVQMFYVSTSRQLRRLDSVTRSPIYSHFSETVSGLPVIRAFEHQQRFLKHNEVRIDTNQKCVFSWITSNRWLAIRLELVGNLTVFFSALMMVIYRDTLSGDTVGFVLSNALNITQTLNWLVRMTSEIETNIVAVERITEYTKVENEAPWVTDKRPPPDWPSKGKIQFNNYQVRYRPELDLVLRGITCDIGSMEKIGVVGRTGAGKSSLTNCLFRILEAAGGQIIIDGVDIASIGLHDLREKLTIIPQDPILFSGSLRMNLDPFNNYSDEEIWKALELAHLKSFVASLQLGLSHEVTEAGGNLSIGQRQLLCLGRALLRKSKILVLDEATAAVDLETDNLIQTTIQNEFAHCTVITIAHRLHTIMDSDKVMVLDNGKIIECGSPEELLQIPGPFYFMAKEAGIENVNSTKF
Bile salt export pump, sequence (O95342 whole entry): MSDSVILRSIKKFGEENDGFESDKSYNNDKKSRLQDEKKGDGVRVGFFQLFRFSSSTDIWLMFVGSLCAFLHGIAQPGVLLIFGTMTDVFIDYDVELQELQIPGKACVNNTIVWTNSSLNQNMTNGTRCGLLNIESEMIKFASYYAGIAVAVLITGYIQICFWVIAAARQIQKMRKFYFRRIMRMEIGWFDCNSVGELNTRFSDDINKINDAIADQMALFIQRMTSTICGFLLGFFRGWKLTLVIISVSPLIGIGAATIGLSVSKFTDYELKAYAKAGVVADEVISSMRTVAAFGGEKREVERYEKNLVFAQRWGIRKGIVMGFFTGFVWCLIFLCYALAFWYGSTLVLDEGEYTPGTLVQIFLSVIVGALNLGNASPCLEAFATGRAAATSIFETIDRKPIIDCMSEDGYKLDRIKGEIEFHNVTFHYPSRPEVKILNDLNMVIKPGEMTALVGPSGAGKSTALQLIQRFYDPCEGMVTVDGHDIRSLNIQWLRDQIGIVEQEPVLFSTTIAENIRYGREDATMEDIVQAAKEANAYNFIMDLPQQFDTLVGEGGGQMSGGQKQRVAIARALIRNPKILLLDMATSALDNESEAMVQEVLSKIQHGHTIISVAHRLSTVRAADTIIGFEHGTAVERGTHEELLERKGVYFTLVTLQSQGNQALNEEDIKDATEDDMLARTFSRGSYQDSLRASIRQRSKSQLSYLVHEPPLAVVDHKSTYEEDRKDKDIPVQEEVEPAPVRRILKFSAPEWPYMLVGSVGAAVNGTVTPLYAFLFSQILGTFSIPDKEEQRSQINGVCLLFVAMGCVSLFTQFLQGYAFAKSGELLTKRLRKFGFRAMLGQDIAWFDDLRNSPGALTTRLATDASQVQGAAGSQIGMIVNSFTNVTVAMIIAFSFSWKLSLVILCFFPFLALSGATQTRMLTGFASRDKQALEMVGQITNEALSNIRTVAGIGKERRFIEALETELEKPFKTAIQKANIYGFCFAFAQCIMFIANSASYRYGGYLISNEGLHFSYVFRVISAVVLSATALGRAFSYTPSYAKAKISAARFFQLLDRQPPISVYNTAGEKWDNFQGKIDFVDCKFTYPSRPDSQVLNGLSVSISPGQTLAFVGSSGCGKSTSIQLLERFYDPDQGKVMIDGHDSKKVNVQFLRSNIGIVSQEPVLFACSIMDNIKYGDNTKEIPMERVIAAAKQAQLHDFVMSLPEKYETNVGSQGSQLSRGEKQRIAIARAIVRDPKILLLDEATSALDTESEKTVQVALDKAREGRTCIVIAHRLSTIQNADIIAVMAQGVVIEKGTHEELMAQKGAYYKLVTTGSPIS
ATP-binding cassette sub-family C member 3, sequence (O15438 whole entry): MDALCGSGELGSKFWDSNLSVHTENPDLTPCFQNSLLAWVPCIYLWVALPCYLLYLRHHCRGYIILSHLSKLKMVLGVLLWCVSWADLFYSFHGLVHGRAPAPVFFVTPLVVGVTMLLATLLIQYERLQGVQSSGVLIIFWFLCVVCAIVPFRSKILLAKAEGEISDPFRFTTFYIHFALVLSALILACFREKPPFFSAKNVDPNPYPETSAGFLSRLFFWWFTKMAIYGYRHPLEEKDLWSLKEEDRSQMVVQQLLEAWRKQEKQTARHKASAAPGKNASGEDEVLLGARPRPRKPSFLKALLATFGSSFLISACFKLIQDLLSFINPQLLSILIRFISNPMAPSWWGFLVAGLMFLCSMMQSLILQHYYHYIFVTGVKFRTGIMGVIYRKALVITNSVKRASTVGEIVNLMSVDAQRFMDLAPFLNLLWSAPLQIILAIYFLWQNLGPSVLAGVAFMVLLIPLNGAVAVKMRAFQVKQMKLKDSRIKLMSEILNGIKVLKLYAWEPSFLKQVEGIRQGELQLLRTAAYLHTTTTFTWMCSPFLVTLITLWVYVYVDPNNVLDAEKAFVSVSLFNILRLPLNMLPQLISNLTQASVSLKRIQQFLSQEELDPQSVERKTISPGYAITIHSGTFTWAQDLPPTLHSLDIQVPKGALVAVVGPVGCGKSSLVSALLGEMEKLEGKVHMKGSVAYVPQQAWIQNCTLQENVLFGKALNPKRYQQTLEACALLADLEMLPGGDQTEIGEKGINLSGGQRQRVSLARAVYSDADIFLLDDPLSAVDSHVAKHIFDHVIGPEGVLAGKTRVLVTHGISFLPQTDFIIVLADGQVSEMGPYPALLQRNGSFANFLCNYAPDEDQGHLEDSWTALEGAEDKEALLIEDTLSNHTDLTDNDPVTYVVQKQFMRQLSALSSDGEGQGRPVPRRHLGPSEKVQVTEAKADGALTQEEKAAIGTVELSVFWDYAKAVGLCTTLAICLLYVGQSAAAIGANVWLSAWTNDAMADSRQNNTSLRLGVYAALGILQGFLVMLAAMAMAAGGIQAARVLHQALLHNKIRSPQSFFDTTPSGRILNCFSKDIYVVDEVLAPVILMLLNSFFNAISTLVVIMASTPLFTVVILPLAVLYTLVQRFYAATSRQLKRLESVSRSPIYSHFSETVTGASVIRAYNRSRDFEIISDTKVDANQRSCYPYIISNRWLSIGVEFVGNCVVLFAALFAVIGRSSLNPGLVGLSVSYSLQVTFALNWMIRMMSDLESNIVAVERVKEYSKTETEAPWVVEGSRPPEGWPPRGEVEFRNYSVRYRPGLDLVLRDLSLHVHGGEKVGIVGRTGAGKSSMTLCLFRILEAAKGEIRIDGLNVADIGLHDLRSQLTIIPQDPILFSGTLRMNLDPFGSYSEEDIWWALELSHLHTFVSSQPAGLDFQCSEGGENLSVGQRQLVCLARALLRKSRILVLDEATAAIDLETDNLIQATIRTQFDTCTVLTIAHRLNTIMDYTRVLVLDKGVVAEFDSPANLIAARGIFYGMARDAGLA

One may read the IC50 as the concentration that gives 50% inhibition. Regarding `CNCC[C@@H](Oc1ccccc1C)c1ccccc1` [ATOMOXETINE HYDROCHLORIDE], the IC50 (in test [1]; in test [2]; in test [3]; on Bile salt export pump) was more than 133 µM in each case.
As for `COc1ccc(CC2c3cc(OC)c(OC)cc3CC[N+]2(C)CCC(=O)OCCCCCOC(=O)CC[N+]2(C)CCc3cc(OC)c(OC)cc3C2Cc2ccc(OC)c(OC)c2)cc1OC` (stereo not given) [ATRACURIUM BESYLATE], the IC50 (in test [1]; in test [2]; in test [3]; on Bile salt export pump) was more than 133 µM each time.
In the case of `C[C@@H](O)[C@H]1C(=O)N2C(C(=O)O)=C(S[C@@H]3CN[C@H](C(=O)Nc4cccc(C(=O)O)c4)C3)[C@H](C)[C@H]12`, the IC50 in test [1] was 56.2 µM; in test [2] it was more than 133 µM; in test [3], more than 133 µM; at Bile salt export pump it was more than 133 µM.
`Nc1ccc(S(=O)(=O)Nc2ncccn2)cc1` [SULFADIAZINE]: the IC50 (in test [1]; in test [2]; in test [3]; on Bile salt export pump) was more than 133 µM throughout.
For `C=CC1=C(C(=O)O)N2C(=O)[C@@H](NC(=O)/C(=N\O)c3csc(N)n3)[C@H]2SC1`, the IC50 was more than 133 µM in test [1], 11.6 µM in test [2], more than 133 µM in test [3] and more than 133 µM at Bile salt export pump.
For `Clc1ccc2c(c1)C(N1CCNCC1)=Nc1ccccc1O2` [AMOXAPINE], the IC50 (in test [1]; in test [2]; in test [3]; on Bile salt export pump) was more than 133 µM throughout.
`CC(=O)Oc1cccc2c1C(=O)c1c(OC(C)=O)cc(C(=O)O)cc1C2=O` [DIACEREIN]: the IC50 was more than 133 µM in test [1], 6.4 µM in test [2], more than 133 µM in test [3] and more than 133 µM on Bile salt export pump.
For `Cc1c(OCC(F)(F)F)ccnc1C[S+]([O-])c1nc2ccccc2[nH]1` (stereo not given) [LANSOPRAZOLE], the IC50 (in test [1]; in test [2]; in test [3]; on Bile salt export pump) was more than 133 µM each time.
For the compound `COc1cc2c3cc1Oc1cc(ccc1O)C[C@@H]1c4c(cc(OC)c(O)c4Oc4ccc(cc4)C[C@@H]3N(C)CC2)CC[N+]1(C)C` [TUBOCURARINE], the IC50 is more than 133 µM in test [1], 9.6 µM in test [2], more than 133 µM in test [3] and more than 133 µM on Bile salt export pump.
In the case of `CC(=O)O[C@H]1C[C@@H]2CC[C@@H]3[C@H](CC[C@@]4(C)[C@H]3C[C@H]([N+]3(C)CCCCC3)[C@@H]4OC(C)=O)[C@@]2(C)C[C@@H]1[N+]1(C)CCCCC1` [PANCURONIUM BROMIDE], the IC50 (in test [1]; in test [2]; in test [3]; on Bile salt export pump) was more than 133 µM in each case.
As for `O=NN(CCCl)C(=O)NC1CCCCC1` [LOMUSTINE], the IC50 (in test [1]; in test [2]; in test [3]; at Bile salt export pump) was more than 133 µM each time.
As to `Cc1cccc(N(C)C(=S)Oc2ccc3ccccc3c2)c1` [TOLNAFTATE], the IC50 (in test [1]; in test [2]; in test [3]; at Bile salt export pump) was more than 133 µM in each case.
With `Nc1nc2c(c(=O)[nH]1)N(C=O)C(CNc1ccc(C(=O)N[C@@H](CCC(=O)O)C(=O)O)cc1)CN2` (stereo not given in full) [LEUCOVORIN CALCIUM], the IC50 (in test [1]; in test [2]; in test [3]; on Bile salt export pump) was more than 133 µM each time.
As to `C=C1CC[C@@]2(O)[C@H]3Cc4ccc(O)c5c4[C@@]2(CCN3CC2CC2)[C@H]1O5`, the IC50 (in test [1]; in test [2]; in test [3]; on Bile salt export pump) was more than 133 µM in each case.
`CC[C@H]1CN2CCc3cc(OC)c(OC)cc3[C@@H]2C[C@@H]1C[C@H]1NCCc2cc(OC)c(OC)cc21` [EMETINE]: the IC50 (in test [1]; in test [2]; in test [3]; at Bile salt export pump) was more than 133 µM in each case.
